Data as given in publication PMC12677607, “Identification of a Pair of Linear or Cyclic Naturally Inspired Bifunctional Lipopeptide Antibiotics That Overcome Antimicrobial Resistance” (Advanced Science, 2025).
≈ marks a conversion by molar mass, not a printed value. Bridge positions count the residues as written; N and C are the ends. Square brackets hold non-standard residues; d marks the D form. Peptide text beside a SMILES is read from it. * marks the point of attachment. Myristoyl = CCCCCCCCCCCCCC(=O)*; Orn = NCCC[C@H](N)C(=O)O; Dab = NCC[C@H](N)C(=O)O; Dap = NC[C@H](N)C(=O)O

Assays:
[1] = system: S. aureus USA300; assay: UDP-MurNAc-pentapeptide accumulation assay; format: cell-based; settings: 8 × MIC, 1 hr, LC-MS
Method: To determine the effects of aquicidine L or aquicidine C4 on bacterial cell wall biosynthesis of S. aureus USA300, the accumulation of the precursor UDP‐MurNAc‐pentapeptide was investigated in antibiotic‐treated cell cultures. 50 µL of overnight cultures were transferred to 5 mL of fresh LB broth and cultured to 0.5 of OD600 at 37 °C and 200 rpm. The cultures were treated with 130 µg/mL of chloramphenicol for 15 min at 37 °C and 200 rpm, and 128 µg/mL of aquicidine L or 32 µg/mL aquicidine C4 was added. 8 µg/mL of vancomycin and DMSO were used as positive and negative controls, respectively. After an incubation of 1 hr, the cell pellet from 0.5 mL of the cell cultures was resuspended in 30 µL of ddH2O and then boiled for 15 min. Finally, the supernatant was collected and then detected using an Agilent 1290 Series High‐Performance Liquid Chromatography (HPLC) coupled to a 6546 Series QTOF mass spectrometer equipped with an XBridge C18 column (4.6 × 150 mm, 5 µm). Solvent A = H2O (0.1% v/v formic acid) and solvent B = CH3CN (0.1% v/v formic acid) were used for HPLC analysis with 0.4 mL min^−1 of flow rate at 25 °C. Gradient conditions were as follows: t = 0‐1 min, 3% solvent B; t = 2‐7 min, 3‐95% solvent B; t = 7‐8 min, 95% solvent B; t = 8–9 min, 95‐3% solvent B; t = 9–10 min, 3% solvent B.

[2] = system: S. aureus USA300; assay: Membrane lysis assay (SYTOX Green); format: cell-based; settings: S. aureus USA300 in PBS, 8 × MIC, n = 2
Method: Bacterial membrane lysis assay was performed in 384‐well black microtiter plates. Overnight cultures of S. aureus USA300 were collected and resuspended in PBS buffer to an OD600 of 0.5. 1 µL of 5 mM SYTOX Green dye was added to 2.5 mL of the diluted cell suspension, which was incubated for 10 min at room temperature in the dark. Fluorescence intensity was detected continually at 2 s intervals (Ex/Em 488/523 nm) using a Tecan spark multimode microplate reader. When the fluorescence signal stabilized, the appropriate amount of each compound (6.4 mg mL^−1 in DMSO, 8 × MIC) was added. DMSO and daptomycin (with 15 mM CaCl2) were used as negative and positive controls, respectively. Data were shown as the relative intensity with respect to the average fluorescence signal prior to the addition of each compound. All membrane lysis assays were performed two independent times (n = 2), and a representative fluorescence recording was presented.

[3] = system: S. aureus USA300; assay: Time-dependent killing assay; format: cell-based; settings: 4× MIC, time-dependent killing curve, n = 3
Method: Overnight cultures of S. aureus USA300 were diluted 1:10000 in LB broth and incubated for 2 h at 37 °C and 200 rpm. […] After 15, 30, 60, 120, 180, 240, 300, and 360 min, 100 µL of cell suspension were collected, serially diluted, and plated on LB agar plates. After an incubation of 16 h at 37 °C, bacterial colonies were counted. Experiments were performed three independent times (n = 3).

[4] = system: E. coli DH5α; assay: Membrane component feeding assay; format: cell-based; settings: feeding 2 to 128 µg mL^−1, E. coli DH5α, Figure 5e
Method: The effects of bacterial membrane components on aquicidine L's or aquicidine C4's anti‐bacterial activities were evaluated using E. coli DH5α or S. aureus USA300. […] All experiments were done in triplicate (n = 3) and repeated two independent times (n = 2).

[5] = system: Candida albicans ATCC 64550; format: cell-based; settings: ATCC 64550, 16 h
Method: (§1) All MIC assays were performed two independent times (n = 2) in 96‐well plates using a broth micro‐dilution method. The lowest concentration of that inhibited visible microbial growth was recorded as the MIC value.
(§2) For fungal strains, overnight cultures were diluted 2000‐fold in YPD broth. 100 µL of diluted cells was mixed with 100 µL of YPD broth containing each peptide ranging from […] 64 to 0.125 µg mL^−1 at 2‐fold serial dilutions.

[6] = Isothermal titration calorimetry; format: binding, Escherichia coli O55:B5; settings: Table S12; ITC, 2 mM LPS into 0.2 mM peptide, in H2O, 20 injections
Method: (§3) Calorimetric experiments were performed to evaluate the interaction between CL, PE, PG, or LPS and aquicidine L or aquicidine C4. To determine the affinity between aquicidine L or aquicidine C4 and CL, PE, or PG, both 2 mM CL, PE, or PG and 0.2 mM aquicidine L or aquicidine C4 were dissolved in 20 mM HEPES buffer (pH 7.5). To determine the interaction between LPS and aquicidine L or aquicidine C4, 2 mM LPS and 0.2 mM aquicidine L or aquicidine C4 were dissolved in H2O. Sequential injections of CL, PE, PG, or LPS into the calorimetric cell filled with aquicidine L or aquicidine C4 were repeated 20 times with equilibration intervals of 200 s. Data were collected by using a MicroCal PEAQ‐ITC instrument and calculated for the equilibrium dissociation constant (KD), change of enthalpy (ΔH), and change of entropy […].

[7] = Isothermal titration calorimetry; format: binding; settings: Table S12, ITC, 20 mM HEPES pH 7.5, 20 injections
Method: as §3

[8] = system: Acinetobacter baumannii P53; assay: microbe, parasite or virus in culture; format: cell-based; settings: Table S11; LB broth, 37 °C, 16 h, n = 2
Outline: (§4)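 Broth microdilution in LB, run in two independent repeats. Overnight cultures were diluted 5000-fold, except S. aureus at 10000-fold, and mixed with peptide-containing LB (2-fold series, 64 to 0.125 µg mL^−1 before mixing). MIC is the lowest concentration that prevented visible growth.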

[9] = system: Candida albicans ATCC 10231; assay: MIC assay (YPD broth); format: cell-based; settings: Table S11; YPD broth, 30 °C, 16 h, n = 2
Method: as §1, §2

[10] = Acute toxicity assay; format: in vivo, mouse; settings: single dose 250 mg kg^−1 intraperitoneal, three mice, five days
Method: For acute toxicity assessment, three mice were given a single dose of aquicidine L or aquicidine C4 at 250 mg kg^−1 via intraperitoneal injection. Mice were observed twice daily for mortality and morbidity as well as for possible signs of acute toxicity. The experiment was totally monitored for five days.

[11] = system: B. subtilis ATCC 23857; assay: MIC assay (broth micro-dilution); format: cell-based; settings: Table S11; LB broth, 37 °C, 16 h, n = 2
Outline: as §4

[12] = system: Escherichia coli DH5α; assay: MIC assay (broth micro-dilution); format: cell-based; settings: Table S11; LB broth, 37 °C, 16 h, n = 2
Outline: as §4

Structure (SMILES)	accumulation of UDP-MurNAc-pentapeptide [1]	SYTOX fluorescence (cell lysis) [2]	bactericidal activity, number of viable cells [3]	inhibition of antibacterial activity by LPS and PE [4]	MIC Candida albicans ATCC 64550 [5]	Kd [6]	Kd ([7]; 2 mM CL into 0.2 mM peptide)	Kd ([7]; 2 mM PE into 0.2 mM peptide)	Kd ([7]; 2 mM PG into 0.2 mM peptide)	MIC Acinetobacter baumannii P53 [8]	MIC Candida albicans ATCC 10231 [9]	acute toxicity in mouse [10]	MIC Bacllussubtilis ATCC 23857 [11]	MIC Escherichia coli DH5α [12]
CCCCCCCCCCCCCC(=O)N[C@@H](CN)C(=O)N[C@H](C(=O)N[C@@H](CC(C)C)C(=O)N[C@@H](CO)C(=O)N[C@@H](CCN)C(=O)N[C@@H](CN)C(=O)N[C@@H](Cc1ccccc1)C(=O)N[C@H](C(=O)N[C@@H](CCCN)C(=O)N[C@@H](CC(N)=O)C(=O)N[C@@H](Cc1ccccc1)C(=O)O)[C@@H](C)CC)[C@@H](C)O [synAQU5-L] (Myristoyl-[Dap]TLS[Dab][Dap]FI[Orn]NF-OH)	did not show an obvious accumulation	not aquicidine L caused a significant increase	only inhibited the growth of S. aureus USA300 within 2 h	stronger dose‐dependent inhibition	> 64 µg/mL	0.29 µM	0.28 µM	7.88 µM	0.32 µM	8 µg/mL (≈ 5.56 µM)	> 64 µg/mL	no obvious acute toxicities	8 µg/mL (≈ 5.56 µM)	2 µg/mL (≈ 1.39 µM)
CCCCCCCCCCCCCC(=O)N[C@@H](CN)C(=O)N[C@H](C(=O)N[C@@H](CC(C)C)C(=O)N[C@H]1COC(=O)[C@H](Cc2ccccc2)NC(=O)[C@H](CC(N)=O)NC(=O)[C@H](CCCN)NC(=O)[C@H]([C@@H](C)CC)NC(=O)[C@H](Cc2ccccc2)NC(=O)[C@H](CN)NC(=O)[C@H](CCN)NC1=O)[C@@H](C)O [synAQU5-C4] (Myristoyl-[Dap]TLS[Dab][Dap]FI[Orn]NF; ester 4-C)	did not show an obvious accumulation	significant increase	decreased the number of viable cells by two orders of magnitude after 5 h		> 64 µg/mL	1.84 µM	0.06 µM	49.3 µM	0.08 µM		> 64 µg/mL	no obvious acute toxicities	2 µg/mL (≈ 1.41 µM)	8 µg/mL (≈ 5.63 µM)
